From patent publication EP0866074A1, “NOVEL NK374186 ANALOGUES OR PHARMACOLOGICALLY ACCEPTABLE SALTS THEREOF” (NIPPON KAYAKU KABUSHIKI KAISHA, priority 1995, dated 1996)
Values after ≈ are worked out from the molar mass of the structure shown.

Key:
graft vs host reaction = test: Graft vs host reaction (GVH), spleen weight method; assay type: in vivo, mouse; details: for Spleen weight/body weight: spleen weighed 7 days after transplantation, BDF mouse; for Index: relative to Untreated = 1.00
Experimental: The spleen weight method by Fords, et al. [W.L. Ford et al., Handbook of Experimental Immunology 30, D.M. Weir, ed., Blackwell Scientific Publications, 1978, pp. 1] was followed. Spleen cells of 5×10^6, separated from a C57BL/6 mouse (8 weeks of age, male) as a donor, were transplanted peritoneally in a BDF mouse (7 weeks of age, male) as a recipient. Simultaneously, NK374186, a control agent or a solvent control (0.25 % gum arabic) was injected subcutaneously in the dorsal skin of the BDF mouse. The NK374186 and the control agent were preliminarily dissolved in 0.25 % gum arabic. Furthermore, on day 1 and day 2, the same administration was conducted, and 7 days after the transplantation, the spleen was weighed.

[1] = system: cell line A2780 derived from human ovarian cancer; test: Suppression of cancer cell proliferation (MTT method); assay type: cell-based
Experimental: Cells were cultured in an RPMI culture medium supplemented with 10 % calf fetus serum in the presence of 5 % CO2 at 37 °C. The cells were inoculated and cultured in a 96-well plate for one day, followed by addition of one of the pharmaceutical compounds. The cells were treated with the compounds for 3 days, and the effects were assessed by the proliferation-suppressed MTT method. The activities of the compounds on the suppression of the proliferation of Cancer cells are shown below. The cancer cells were of a cell line A2780 derived from human ovarian cancer.

Human peripheral T cells = test: Blastoid transformation via OKT-3 (3H-thymidine incorporation); assay type: cell-based; details: 2 ng/ml OKT-3 antibody, 72-hr cultivation
Experimental: For cultivation, RPMI 1640 medium supplemented with 10 % calf fetus serum, 25 mM HEPS buffer, 100 µg/ml streptomycin […] and 100 units/ml penicillin G in a 96-well flat-bottom microplate (coaster) was used. As a mitogen, 2 ng/ml OKT-3 antibody was used.
Human peripheral T cells Were collected from blood drawn with heparin by the density-gradient centrifugation method. 200,000 cells and test compounds at individual concentrations were added to each well to a total volume of 0.2 ml, for 72-hr cultivation. Eight hours before termination of the cultivation, 37 kBq ^3H - thymidine was added to determine the incorporation thereof into the cells. The effects were evaluated on the basis of the ratio of the incorporated ^3H - thymidine in the groups with addition of the test compounds to the incorporated ^3H - thymidine in the control group (Japanese Immunology Association, Methods for Experiment Immunology, pp. 2267 - 2276).

Which Spleen weight/body weight (graft vs host reaction; Dose 0.5 mg/kg subcutaneously on day 0, 1 and 2) does the source give for CCCCCCCCCCCCCC1OC(=O)C(COC(C)=O)NC(=O)C(C(C)OP(=O)(O)O)NC(=O)C(C(C)C)NC(=O)C(C)C(O)C1C (stereo not shown) [NK374186P] here?
Its Spleen weight/body weight is 10.01 X10^-3.

What about the Index (graft vs host reaction; Dose 0.5 mg/kg) of the same molecule?
Its Index is 2.07.

What about the Spleen weight/body weight (graft vs host reaction; Dose 5.0 mg/kg subcutaneously on day 0, 1 and 2) of the same molecule?
Its Spleen weight/body weight is 11.45 X10^-3.

And the Index (graft vs host reaction; Dose 5.0 mg/kg)?
Its Index is 2.37.

And the Spleen weight/body weight (graft vs host reaction; Dose 50.0 mg/kg subcutaneously on day 0, 1 and 2)?
Its Spleen weight/body weight is 12.00 X10^-3.

What about the Index (graft vs host reaction; Dose 50.0 mg/kg) of the same molecule?
Its Index is 2.48.

What about the “effect on GVH” value (graft vs host reaction; result in words, summary of Table 3, ratio of spleen weight to body weight increases depending on the dose) of the same molecule?
The value was “significant GVH suppression”.

What about the IC50 ([1]; Homo sapiens, 72 h, A2780 cells, treated for 3 days, MTT method) of the same molecule?
Its IC50 is 33 µg/mL (≈ 44.8 µM).

What about the “activities on the suppression of the proliferation of the cancer cells” value ([1]; result in words, summary of Table 1) of the same molecule?
The value was “have activities on the suppression of the proliferation of the cancer cells”.

And the “ratio of the incorporated 3H-thymidine in the groups with addition of the test compounds to the control group” value (“ratio of the incorporated 3H-thymidine” below) (Human peripheral T cells; Concentration 0.03 (unit not given))?
Its value is 99.6.

And the “ratio of the incorporated 3H-thymidine” value (Human peripheral T cells; Concentration 0.1 (unit not given))?
Its value is 100.6.

What about the “ratio of the incorporated 3H-thymidine” value (Human peripheral T cells; Concentration 0.3 (unit not given)) of the same molecule?
The value was 102.6.

And the “ratio of the incorporated 3H-thymidine” value (Human peripheral T cells; Concentration 1.0 (unit not given))?
The value was 119.7.

What about the “ratio of the incorporated 3H-thymidine” value (Human peripheral T cells; Concentration 3.0 (unit not given)) of the same molecule?
Its value is 131.4.

And the “ratio of the incorporated 3H-thymidine” value (Human peripheral T cells; Concentration 10.0 (unit not given))?
Its value is 97.7.

And the “ratio of the incorporated 3H-thymidine” value (Human peripheral T cells; Concentration 30.0 (unit not given))?
Its value is 69.3.
